Literature values as cited in publication PMC9762682, “Tocotrienols: Exciting Biological and Pharmacological Properties of Tocotrienols and Naturally Occurring Compounds, Part II” (Annals of clinical case reports, 2022).

What was measured:
Hela cells = tested on: Hela cells; parameters: method as in PMID 29606130; value at effective dose: unit not given here;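 as to IC50: anti-proliferation of cancer cells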
Liver cancer cells = tested on: Liver cancer cells; parameters: method as in PMID 29606130; value at effective dose: unit not given here; conditions: for effective dose / percentage of control at effective dose / value at effective dose: 48 h
Pancreas cancer cells = tested on: Pancreas cancer cells; parameters: method as in PMID 29606130; value at effective dose: unit not given here; conditions: for effective dose / percentage of control at effective dose / value at effective dose: 48 h
Prostate cancer cells = tested on: Prostate cancer cells; parameters: method as in PMID 29606130; value at effective dose: scale not given here; conditions: for effective dose / percentage of control at effective dose / value at effective dose: 48 h;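 as to IC50: anti-proliferation of cancer cells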
Breast cancer cells = tested on: Breast cancer cells; parameters: method as in PMID 29606130; value at effective dose: unit not given here;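 as to IC50: anti-proliferation of cancer cells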
Lung cancer cells = tested on: Lung cancer cells; parameters: method as in PMID 29606130; value at effective dose: unit not given here
Melanoma cells = tested on: Melanoma cells; parameters: method as in PMID 29606130
B-Lymphocyte cells = tested on: B-Lymphocyte cells; parameters: method as in PMID 29606130; value at effective dose: unit not given here
T-cells (Jurkat) = tested on: T-cells (Jurkat); parameters: method as in PMID 29606130; value at effective dose: unit not given here
[1] = serum, two capsules/d for 24-weeks

Oc1ccc(/C=C/c2cc(O)cc(O)c2)cc1 [trans-Resveratrol]
Fasting Glucose, Post-dose, percentage of control (pre-dose) in parentheses (people with T2DM; [1]): 94% | MDA, Post-dose (people with T2DM; [1]): 3.49 µmol/L | MDA, Post-dose, percentage of control (pre-dose) in parentheses (people with T2DM; [1]): 91% | hs-CRP, Post-dose (people with T2DM; [1]): 3.28 mg/L | hs-CRP, Post-dose, percentage of control (pre-dose) in parentheses (people with T2DM; [1]): 89% | Fasting Glucose, Post-dose (people with T2DM; serum, two capsules/d for 24-weeks (δ-tocotrienol 250 mg, vitamin D3 5000 IU, resveratrol 250 mg per capsule)): 6.98 mmol/L | Fasting HbA1c, Post-dose (people with T2DM; two capsules/d for 24-weeks): 7.86% | Fasting HbA1c, Post-dose, percentage of control (pre-dose) in parentheses (people with T2DM; two capsules/d for 24-weeks): 92% | HOMA-IR, Post-dose (people with T2DM; two capsules/d for 24-weeks): 4.98 | HOMA-IR, Post-dose, percentage of control (pre-dose) in parentheses (people with T2DM; two capsules/d for 24-weeks): 93%

C=C[C@H]1C[N@@]2CC[C@H]1C[C@H]2[C@H](O)c1ccnc2ccc(OC)cc12 [Quinine Sulphate]
IC50 (Hela cells): 10 µM | percentage of control at IC50 dose (Hela cells): 24% | effective dose (Hela cells; 48 h): 20 µM | percentage of control at effective dose (Hela cells; 48 h): 19% | IC50 (Liver cancer cells): 80 µM | percentage of control at IC50 dose (Liver cancer cells): 58% | effective dose (Liver cancer cells): 80 µM | percentage of control at effective dose (Liver cancer cells): 58% | value at effective dose (Liver cancer cells): 47.7 ± 2.1 | effective dose (Pancreas cancer cells): 40 µM | percentage of control at effective dose (Pancreas cancer cells): 78% | value at effective dose (Pancreas cancer cells): 35.0 ± 3.0 | IC50 (Prostate cancer cells): 20 µM | percentage of control at IC50 dose (Prostate cancer cells): 36% | effective dose (Prostate cancer cells): 20 µM | percentage of control at effective dose (Prostate cancer cells): 36% | value at effective dose (Prostate cancer cells): 15.7 ± 2.1 | effective dose (Breast cancer cells): 80 µM | percentage of control at effective dose (Breast cancer cells): 60% | value at effective dose (Breast cancer cells): 12.3 ± 2.3 | effective dose (Lung cancer cells): 40 µM | percentage of control at effective dose (Lung cancer cells): 66% | IC50 (Melanoma cells): 80 µM | effective dose (Melanoma cells): 20 µM | percentage of control at IC50 dose (Melanoma cells): 50% | percentage of control at effective dose (Melanoma cells): 56% | effective dose (B-Lymphocyte cells): 80 µM | percentage of control at effective dose (B-Lymphocyte cells): 19% | IC50 (T-cells (Jurkat)): 80 µM | effective dose (T-cells (Jurkat)): 40 µM | percentage of control at IC50 dose (T-cells (Jurkat)): 50% | percentage of control at effective dose (T-cells (Jurkat)): 77% | value at effective dose (T-cells (Jurkat)): 267.7 ± 29.7

C=C(NC(=O)C(=C)NC(=O)c1csc(C2=N[C@@H]3c4csc(n4)[C@H]4NC(=O)c5csc(n5)[C@H]([C@](C)(O)[C@@H](C)O)NC(=O)[C@H]5CSC(=N5)/C(=C/C)NC(=O)[C@H]([C@@H](C)O)NC(=O)c5csc(n5)[C@]3(CC2)NC(=O)[C@H](C)NC(=O)C(=C)NC(=O)[C@H](C)NC(=O)[C@H]([C@@H](C)CC)N[C@@H]2C=Cc3c([C@H](C)O)cc(nc3[C@H]2O)C(=O)O[C@@H]4C)n1)C(N)=O [Thiostrepton]
IC50 (Hela cells): 10 µM | percentage of control at IC50 dose (Hela cells): 24% | effective dose (Hela cells; 48 h): 40 µM | percentage of control at effective dose (Hela cells; 48 h): 16% | value at effective dose (Hela cells; 48 h): 8.7 ± 1.5 | IC50 (Liver cancer cells): 2.5 µM | percentage of control at IC50 dose (Liver cancer cells): 53% | effective dose (Liver cancer cells): 10 µM | percentage of control at effective dose (Liver cancer cells): 8% | value at effective dose (Liver cancer cells): 6.7 ± 2.2 | IC50 (Pancreas cancer cells): 5 µM | percentage of control at IC50 dose (Pancreas cancer cells): 29% | effective dose (Pancreas cancer cells): 10 µM | percentage of control at effective dose (Pancreas cancer cells): 16% | value at effective dose (Pancreas cancer cells): 7.7 ± 0.6 | IC50 (Prostate cancer cells): 2.5 µM | percentage of control at IC50 dose (Prostate cancer cells): 53% | effective dose (Prostate cancer cells): 5 µM | percentage of control at effective dose (Prostate cancer cells): 19% | value at effective dose (Prostate cancer cells): 7.0 ± 1.7 | IC50 (Breast cancer cells): 20 µM | effective dose (Breast cancer cells): 10 µM | percentage of control at IC50 dose (Breast cancer cells): 16% | percentage of control at effective dose (Breast cancer cells): 29% | value at effective dose (Breast cancer cells): 6.7 ± 0.6 | IC50 (Lung cancer cells): 5 µM | effective dose (Lung cancer cells): 5 µM | percentage of control at IC50 dose (Lung cancer cells): 48% | percentage of control at effective dose (Lung cancer cells): 28% | value at effective dose (Lung cancer cells): 7.0 ± 2.0 | effective dose (Melanoma cells): 5 µM | percentage of control at IC50 dose (Melanoma cells): 34% | percentage of control at effective dose (Melanoma cells): 13% | effective dose (B-Lymphocyte cells): 2.5 µM | percentage of control at IC50 dose (B-Lymphocyte cells): 23% | percentage of control at effective dose (B-Lymphocyte cells): 23% | value at effective dose (B-Lymphocyte cells): 15.7 ± 4.0 | effective dose (T-cells (Jurkat)): 2.5 µM | percentage of control at IC50 dose (T-cells (Jurkat)): 5% | percentage of control at effective dose (T-cells (Jurkat)): 5% | value at effective dose (T-cells (Jurkat)): 21.3 ± 2.1
